From patent publication US12084472B2 (Ardelyx, Inc., priority 2015, dated 2024)

These compounds were tested against T1, human TGR5 (Homo sapiens, UniProt Q8TDU6) (assay: Cell-based TGR5 assay (cAMP generation, HTRF)). Details: HEK293 cells stably transfected with human TGR5; cAMP by HTRF; 30 minutes at 37° C.; read-out: pEC50 Human TGR5 (converted).
T1 construct: expressed in transfected cells; host or cells: HEK293
T1 sequence (Q8TDU6 1-330): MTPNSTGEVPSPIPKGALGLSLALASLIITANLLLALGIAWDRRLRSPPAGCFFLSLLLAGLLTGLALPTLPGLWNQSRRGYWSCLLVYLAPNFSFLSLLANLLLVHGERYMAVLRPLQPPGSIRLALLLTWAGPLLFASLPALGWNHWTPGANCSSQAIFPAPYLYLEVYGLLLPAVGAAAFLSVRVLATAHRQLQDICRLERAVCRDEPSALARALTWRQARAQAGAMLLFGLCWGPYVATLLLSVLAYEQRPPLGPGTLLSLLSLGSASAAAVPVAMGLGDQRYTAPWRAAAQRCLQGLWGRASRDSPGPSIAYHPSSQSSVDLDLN
Procedure: A primary cell-based assay utilized HEK293 cells stably transfected with a gene encoding human TGR5. Cells were treated with candidate TGR5 activators and assessed for increased intercellular levels of cAMP.
TGR5-mediated cAMP generation was measured using a homogeneous time resolved fluorescence (HTRF) detection method (Cisbio). Test compounds were dissolved in DMSO to a final concentration of 10 mM. Serial 3-fold dilutions of the stock solution were made in DMSO, and these solutions were diluted 100-fold into Hanks Balanced Salt Solution supplemented with 10 mM HEPES pH 7.4, 0.003% Tween 20 and 0.5 mM isobutyl methylxanthine. Five microliters of diluted test compounds were added to wells of a black 384 well plate.
Cells grown overnight at 37° C./5% CO2 were harvested and resuspended in Hanks Balanced Salt Solution containing 10 mM HEPES to a concentration of […]. Five microliters (2500 cells) were dispensed into each well of the 384 well plate containing compound dilutions and incubated at 37° C. for 30 minutes. Each compound was tested in duplicate at 12 concentrations ranging from 0.05 nM to 10 μM.
Following incubation with test compounds, cAMP was detected through the successive addition of 5 μL each of cAMP labeled with the modified allophyocyanin dye d2 (cAMP-d2) and cryptate-labeled anti-cAMP in lysis buffer, and reading HTRF per the manufacturer's instructions.
A standard curve was used to convert the raw HTRF data into [cAMP]. The concentration of cAMP was plotted against log [test compound] and the resulting curves were fit to a 3-parameter logistical equation using GraphPad Prism to determine pEC50 (the negative log of the EC50) and the magnitude of the response.

Structure (SMILES) | EC50 [nM]
CCC(=O)OC[C@H](NC(=O)NCCCCN(C)S(=O)(=O)c1ccc(Cl)c(COC2(c3cnccc3-c3ccccc3OC3CC3)CC2)c1)[C@@H](OC(=O)CC)[C@H](OC(=O)CC)[C@@H](COC(=O)CC)OC(=O)CC [Compound I-738, (2R,3S,4R,5S)-5-[[(4-[N-methyl[4-chloro-3-([1-[4-(2-cyclopropoxyphenyl)pyridin-3-yl]cyclopropoxy]methyl)benzene]sulfonamido]butyl)carbamoyl]amino]-1,2,4,6-tetrakis(propanoyloxy)hexan-3-yl propanoate] | 126 to 1000
COC[C@@H](O)CN(C[C@H](O)[C@@H](O)[C@H](O)[C@H](O)CO)C(=O)CCCCc1cc(Cl)c(COC2(c3cnccc3-c3ccccc3OC3CC3)CC2)cc1Cl [Compound I-125, 5-[2,5-dichloro-4-({1-[4-(2-cyclopropoxyphenyl)pyridin-3-yl]cyclopropoxy}methyl)phenyl]-N-[(2S)-2-hydroxy-3-methoxypropyl]-N-[(2S,3R,4R,5R)-2,3,4,5,6-pentahydroxyhexyl]pentanamide] | < 100
CC(CCCC(=O)N(CCO)C[C@H](O)[C@@H](O)[C@H](O)[C@H](O)CO)c1ccc(Cl)c(COC2(c3cnccc3-c3ccccc3OC3CC3)CC2)c1 (stereo partly drawn) [Compound I-374, 5-[4-chloro-3-({1-[4-(2-cyclopropoxyphenyl)pyridin-3-yl]cyclopropoxy}methyl)phenyl]-N-(2-hydroxyethyl)-N-[(2S,3R,4R,5R)-2,3,4,5,6-pentahydroxyhexyl]hexanamide] | < 100
O=C([C@@H](O)[C@@H](O)[C@H](O)[C@@H](O)CO)N(CCCSc1ccc(Cl)c(CNC2(c3cnccc3-c3ccccc3OC3CC3)CC2)c1)CC1CCOCC1 [Compound I-553, (2S,3S,4R,5S)-N-[3-({4-chloro-3-[({1-[4-(2-cyclopropoxyphenyl)pyridin-3-yl]cyclopropyl}amino)methyl]phenyl}sulfanyl)propyl]-2,3,4,5,6-pentahydroxy-N-(oxan-4-ylmethyl)hexanamide] | 126 to 1000
O=C(NCCCCNS(=O)(=O)c1ccc(Cl)c(COC2(c3c[n+]([O-])ccc3-c3ccccc3OC3CC3)CC2)c1)[C@@H](O)[C@@H](O)[C@H](O)[C@@H](O)CO [Compound I-775, 3-(1-((2-chloro-5-(N-(4-((2S,3S,4R,5S)-2,3,4,5,6-pentahydroxyhexanamido)butyl)sulfamoyl)benzyl)oxy)cyclopropyl)-4-(2-cyclopropoxyphenyl)pyridine 1-oxide] | 126 to 1000
Cc1cc(COC2(c3cnccc3-c3ccccc3OC3CC3)CC2)c(Cl)cc1CCCCNC(=O)N[C@@H](CO)[C@@H](O)[C@H](O)[C@H](O)CO [Compound I-95, 1-(4-(5-chloro-4-((1-(4-(2-cyclopropoxyphenyl)pyridin-3-yl)cyclopropoxy)methyl)-2-methylphenyl)butyl)-3-((2S,3R,4S,5R)-1,3,4,5,6-pentahydroxyhexan-2-yl)urea] | < 100
O=C(O)CCC(CCC(=O)O)(CCC(=O)O)NC(=O)CCCCc1cc(Cl)c(COC2(c3cnccc3-c3ccccc3OC3CC3)CC2)cc1Cl [Compound I-102, 4-(2-carboxyethyl)-4-{5-[2,5-dichloro-4-({1-[4-(2-cyclopropoxyphenyl)pyridin-3-yl]cyclopropoxy}methyl)phenyl]pentanamido}heptanedioic acid] | 126 to 1000
CC(OCCc1cc(Cl)c(COC2(c3cnccc3-c3ccccc3OC3CC3)CC2)cc1Cl)C(=O)NC[C@H](O)[C@@H](O)[C@H](O)[C@H](O)CO (stereo partly drawn) [Compound I-152, 2-{2-[2,5-dichloro-4-({1-[4-(2-cyclopropoxyphenyl)pyridin-3-yl]cyclopropoxy}methyl)phenyl]ethoxy}-N-[(2S,3R,4R,5R)-2,3,4,5,6-pentahydroxyhexyl]propanamide] | 126 to 1000
C[C@H](CCCN)c1ccc(Cl)c(CNC2(c3cnccc3-c3ccccc3OC3CC3)CC2)c1 (single isomer, unassigned) [Compound I-251] | < 100
O=C([C@@H](O)[C@@H](O)[C@H](O)[C@@H](O)CO)N(CCCSc1ccc(Cl)c(COC2(c3cnccc3-c3ccccc3OC3CC3)CC2)c1)C1CCOCC1 [Compound I-565, (2S,3S,4R,5S)-N-(3-{[4-chloro-3-({1-[4-(2-cyclopropoxyphenyl)pyridin-3-yl]cyclopropoxy}methyl)phenyl]sulfanyl}propyl)-2,3,4,5,6-pentahydroxy-N-(oxan-4-yl)hexanamide] | 126 to 1000
O=C(NC[C@H](O)[C@@H](O)[C@H](O)[C@H](O)CO)C12CCC(NS(=O)(=O)c3ccc(Cl)c(COC4(c5cnccc5-c5ccccc5OC5CC5)CC4)c3)(CC1)CC2 [Compound I-445, 4-[4-chloro-3-({1-[4-(2-cyclopropoxyphenyl)pyridin-3-yl]cyclopropoxy}methyl)benzenesulfonamido]-N-[(2S,3R,4R,5R)-2,3,4,5,6-pentahydroxyhexyl]bicyclo[2.2.2]octane-1-carboxamide] | 126 to 1000
CC(=O)N(CCSc1ccc(Cl)c(COC2(c3cnccc3-c3ccccc3OC3CC3)CC2)c1)C[C@H](O)[C@@H](O)[C@H](O)[C@H](O)CO [Compound I-505, N-(2-{[4-chloro-3-({1-[4-(2-cyclopropoxyphenyl)pyridin-3-yl]cyclopropoxy}methyl)phenyl]sulfanyl}ethyl)-N-[(2S,3R,4R,5R)-2,3,4,5,6-pentahydroxyhexyl]acetamide] | < 100
CS(=O)(=O)NCCCCN(CCCSc1ccc(Cl)c(CNC2(c3cnccc3-c3ccccc3OC3CC3)CC2)c1)C(=O)[C@@H](O)[C@@H](O)[C@H](O)[C@@H](O)CO [Compound I-599, (2S,3S,4R,5S)-N-[3-({4-chloro-3-[({1-[4-(2-cyclopropoxyphenyl)pyridin-3-yl]cyclopropyl}amino)methyl]phenyl}sulfanyl)propyl]-2,3,4,5,6-pentahydroxy-N-(4-methanesulfonamidobutyl) hexanamide] | < 100
COCc1ccccc1-c1ccncc1C1(NCc2cc(Cl)ccc2Cl)CC1 [Compound I-12] | 126 to 1000
CS(=O)(=O)CCCN(CCCCSc1ccc(Cl)c(CNC2(c3cnccc3-c3ccccc3OC3CC3)CC2)c1)C(=O)[C@@H](O)[C@@H](O)[C@H](O)[C@@H](O)CO [Compound I-532, (2S,3S,4R,5S)-N-[4-({4-chloro-3-[({1-[4-(2-cyclopropoxyphenyl)pyridin-3-yl]cyclopropyl}amino)methyl]phenyl}sulfanyl)butyl]-2,3,4,5,6-pentahydroxy-N-(3-methanesulfonylpropyl) hexanamide] | < 100
NC(=O)CN(CCCCc1cc(Cl)c(COC2(c3cnccc3-c3ccccc3OC3CC3)CC2)cc1Cl)C(=O)[C@@H](O)[C@@H](O)[C@H](O)[C@@H](O)CO [Compound I-82, (2S,3S,4R,5S)-N-(carbamoylmethyl)-N-{4-[2,5-dichloro-4-({1-[4-(2-cyclopropoxyphenyl)pyridin-3-yl]cyclopropoxy}methyl)phenyl]butyl}-2,3,4,5,6-pentahydroxyhexanamide] | < 100
O=C([C@@H](O)[C@@H](O)[C@H](O)[C@@H](O)CO)N(CCCCSc1ccc(Cl)c(CNC2(c3cnccc3-c3ccccc3OC3CC3)CC2)c1)C1CCS(=O)(=O)CC1 [Compound I-581, (2S,3S,4R,5S)-N-[4-({4-chloro-3-[({1-[4-(2-cyclopropoxyphenyl)pyridin-3-yl]cyclopropyl}amino)methyl]phenyl}sulfanyl)butyl]-N-(1,1-dioxo-1λ^6-thian-4-yl)-2,3,4,5,6-pentahydroxyhexanamide] | < 100
O=C(CCCSc1ccc(Cl)c(COC2(c3cnccc3-c3ccccc3OC3CC3)CC2)c1)N(CCCCO)C[C@H](O)[C@@H](O)[C@H](O)[C@H](O)CO [Compound I-692, 4-{[4-chloro-3-({1-[4-(2-cyclopropoxyphenyl)pyridin-3-yl]cyclopropoxy}methyl)phenyl]sulfanyl}-N-(4-hydroxybutyl)-N-[(2S,3R,4R,5R)-2,3,4,5,6-pentahydroxyhexyl]butanamide] | 126 to 1000
CC(CCCC(=O)NC[C@H](O)[C@@H](O)[C@H](O)[C@H](O)CO)c1cc(Cl)c(COC2(c3cnccc3-c3ccccc3OC3CC3)CC2)cc1Cl (stereo partly drawn) [Compound I-161, 5-[2,5-dichloro-4-({1-[4-(2-cyclopropoxyphenyl)pyridin-3-yl]cyclopropoxy}methyl)phenyl]-N-[(2S,3R,4R,5R)-2,3,4,5,6-pentahydroxyhexyl]hexanamide] | < 100
COc1ccccc1-c1ccncc1C1(NCc2cc(Cl)ccc2Cl)CC1 [Compound I-4, N-[(2,5-dichlorophenyl)methyl]-1-[4-(2-methoxyphenyl)pyridin-3-yl]cyclopropan-1-amine] | 126 to 1000
